The record followed here is article PMC5113208 (2016).

The KD is the constant that tells how readily two partners part at equilibrium. Low readings indicate a tighter complex, high ones a looser complex.

SMILES strings stand for the structures.

The subject of this experiment is RNA Spinach (RNA, aptamer) GGACGCGACCGAAAUGGUGAAGGACGGGUCCAGUGCGAAACACGCACUGUUGAGUAGAGUGUGAGCUCCGUAACUGGUCGCGUC
As to the kind of experiment: fluorescence titration. The conditions noted are these: 140 mM KCl, 1 mM MgCl2; 10 mM NaH2PO4 pH 7.2, 0.05% Tween-20, room temperature.

As for `CC1=N/C(=C\c2cc(F)c(O)c(F)c2)C(=O)N1C`, the dissociation constant (KD) was found to be 0.42 ± 0.04 µM.
